For assay [1], the target named is T1, purified recombinant human Aggrecanase-1 (rAgg1) (Homo sapiens, UniProt O75173).
T1 sequence (O75173 213-837): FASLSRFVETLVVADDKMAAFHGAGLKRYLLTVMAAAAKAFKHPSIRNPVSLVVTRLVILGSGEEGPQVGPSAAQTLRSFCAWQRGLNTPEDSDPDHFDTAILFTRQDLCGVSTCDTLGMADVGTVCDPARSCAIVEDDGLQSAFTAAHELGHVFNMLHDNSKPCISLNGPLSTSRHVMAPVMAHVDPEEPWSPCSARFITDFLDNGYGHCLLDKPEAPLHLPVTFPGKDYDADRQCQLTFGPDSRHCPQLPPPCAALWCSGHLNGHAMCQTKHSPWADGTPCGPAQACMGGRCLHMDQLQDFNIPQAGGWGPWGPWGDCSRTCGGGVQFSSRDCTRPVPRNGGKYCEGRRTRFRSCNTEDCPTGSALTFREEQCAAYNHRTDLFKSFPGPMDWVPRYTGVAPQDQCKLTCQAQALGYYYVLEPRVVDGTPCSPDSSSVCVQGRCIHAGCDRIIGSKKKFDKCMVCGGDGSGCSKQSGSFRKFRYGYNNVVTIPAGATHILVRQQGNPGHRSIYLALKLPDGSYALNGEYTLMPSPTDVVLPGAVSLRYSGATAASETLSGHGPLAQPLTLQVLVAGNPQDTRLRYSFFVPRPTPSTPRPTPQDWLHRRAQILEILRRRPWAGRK
Put plainly: In vitro fluorescence screen for Aggrecanase-1 inhibitors. The assay is classed as biochemical. Particulars: for pIC50: read-out: Agg1 IC50; for pKi: enzyme not given, column follows Agg1 IC50, read-out: Ki. On the set-up: Agg1 % at concentration: scale not given here.

Assay [2] has as its target T2, purified recombinant human Aggrecanase-2 (Ag2t-Phe628-Strep) (Homo sapiens, UniProt Q9UNA0).
T2 construct: the form used is denoted as Ag2t-Phe628-Strep (MW=41,737)
T2 sequence (Q9UNA0 262-628): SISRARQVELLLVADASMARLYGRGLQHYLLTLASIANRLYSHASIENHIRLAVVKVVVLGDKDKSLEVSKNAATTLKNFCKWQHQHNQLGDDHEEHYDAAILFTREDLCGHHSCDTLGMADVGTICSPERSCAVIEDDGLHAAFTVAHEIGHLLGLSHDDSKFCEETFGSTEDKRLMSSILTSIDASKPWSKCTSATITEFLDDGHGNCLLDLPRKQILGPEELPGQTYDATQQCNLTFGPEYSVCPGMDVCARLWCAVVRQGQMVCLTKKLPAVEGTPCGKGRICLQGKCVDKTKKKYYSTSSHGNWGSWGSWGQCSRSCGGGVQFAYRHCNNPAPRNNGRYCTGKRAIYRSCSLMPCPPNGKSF
Put plainly: In vitro fluorescence screen for Aggrecanase-2 inhibitors. The assay is classed as biochemical. Particulars: for pIC50: read-out: Agg 2 IC50.

The target in assay [3] is T3, recombinant human catalytic domain of MMP-13 (Homo sapiens, UniProt P45452).
T3 construct: catalytic domain of MMP-13 (165 amino acids, residues 104-268, 19 kDa)
Put plainly: In vitro fluorescence assay of MMP-13 activity. The format is biochemical. The note with it: Table 2; nM printed in one cell only.

In assay [4] the test system is bovine articular cartilage treated with Interleukin 1 alpha (IL-1α). Put plainly: Bovine articular cartilage explant cultures: inhibition of degradation of proteoglycan. The assay is classed as cell-based. The note with it: inhibitory effect expressed as percentage, concentration not printed. An excerpt:
This in vitro procedure was used to evaluate the effect and relative potencies of small molecule compounds to inhibit the degradation of proteoglycan in articular cartilage treated with Interleukin 1 alpha (IL-1α). Treatment of articular cartilage with IL 1α induces expression of a cascade of enzymes that initiates cartilage matrix degradation. This assay was utilized to select small molecule compounds that inhibit the enzyme activity and protects cartilage matrix degradation.
Articular cartilage: bovine metacarpal joints were disinfected with 10% Wescodyne followed by 70% ethanol. 6 mm articular cartilage discs were prepared and rinsed once in PBS and medium, respectively. The discs were cultured in a stirring flask with serum-free medium for 5 days for equilibrium with one medium change. Small molecule compounds: stock solutions of test small molecule compounds (usually at 5 mg/ml) were prepared in DMSO. Working solutions were diluted with DMSO and generally ranged from 0.1 μg/ml to 10 ug/ml. The DMSO stocks were stored at […]. Articular cartilage explant culture medium: DMEM, 2 mM glutamax, 100 U/ml of antibiotic and antimycotic, 50 μg/ml ascorbate and 10 mM Hepes (pH-7.0). Proteoglycan content-Dimethyl methylene blue (DMMB) solution: […] DMMB, 10 ml 100% ethanol, 29.5 ml of 1M NaOH, 3.5 ml of 98% formic acid and water to 1 L. Chondroitin sulphate sodium salt: 1.56-200 ug/ml serial dilutions.
For the explant culture, cartilage discs were cultured in serum-free medium for 48 h or more. Discs were weighed and transferred to a 96-well plate, 1 disc per-well. 0.2 ml of medium containing 5 ng/ml of IL-1 and different concentrations of compounds were added to each well, with 3 wells allocated for each treatment. The medium was collected at days 1, 2, & 3 and replaced accordingly.
For the DMMB assay, conditioned medium (CM) samples were diluted with medium. 10 ul of each standard or diluted sample was added in duplicate into a 96-well-plate and 200 μl of DMMB solution was added into each well. Absorbance at 520 nm was measured for each well. Proteoglycan contents in CM were calculated daily.
The proteoglycan contents are expressed as ug per mg of cartilage. The inhibitory effect of the compounds is expressed as percentage. (See, Tortorella, M. D. et al., Science 1999, 284, 1664-1666).

Setting [5] is: Table 1, first of two columns headed bovine.
[6] abbreviates: Table 1, second of two columns headed bovine.

pIC50, pKi: −log10 of the molar value. Read-outs that look alike come from different tables or passages of the source. A value given as a limit tells only on which side of the number the result lay.

Take `O=C(O)CC[C@H](NC(=O)c1ccc(-c2ccccc2)cc1)C(=O)NC1c2ccccc2-c2ccccc21` [Example 8YYYYY, N^2-(biphenyl-4-ylcarbonyl)-N^1-9H-fluoren-9-yl-L-α-glutamine]: the figures for the pIC50 in assay [1] (Table 2) and in assay [2] (Table 2) were 7.06 and 5.55, respectively. The IC50 (in general, the concentration at which inhibition is half-maximal) in assay [3] was about 20000 nM.
Turning to `COc1cc(CNC(=O)[C@H](CCC(=O)O)NC(=O)c2ccc(-c3ccc(C)c(F)c3)cc2)cc(OC)c1OC` [Example 17R, N^2-[(3′-fluoro-4′-methylbiphenyl-4-yl)carbonyl]-N-(3,4,5-trimethoxybenzyl)-L-α-glutamine], the pIC50 (as a rule, the IC50 on a negative log10 scale, so that one unit is a factor of ten) was 7.14 in assay [1] (Table 2) and 6.85 in assay [2] (Table 2). In addition, in assay [3], the IC50 stood at 6000 nM.
Turning to `O=C(O)CC[C@H](NC(=O)c1ccc(-c2ccccc2)cc1)C(=O)NCCCCc1ccccc1` [Example 8II, N^2-(1,1′-biphenyl-4-ylcarbonyl)-N^1-(4-phenylbutyl)-L-α-glutamine], in assay [1] (Table 1), the pKi (in general, the negative decadic logarithm of the Ki, by convention in mol/L) was 7.41 and the pIC50 was 7.36. Further, in assay [4] (setting [5]), the bovine came to 75%. Besides, in assay [4] (setting [6]), the bovine is 40%.
As to `O=C(O)CC[C@H](NC(=O)c1ccc(-c2ccccc2)cc1)C(=O)NCc1cccc(OC(F)(F)F)c1` [Example 8U, N^2-(1,1′-biphenyl-4-ylcarbonyl)-N^1-[3-(trifluoromethoxy)benzyl]-L-α-glutamine], the negative logarithm of the IC50 (pIC50) in assay [1] (Table 1) was 6.70. Further, the bovine in assay [4] (setting [5]) stood at 63%; in assay [4] (setting [6]) it was 26%.
`CN(C)c1cccc(CNC(=O)[C@H](CCC(=O)O)NC(=O)c2ccc(-c3ccccc3)cc2)c1` [Example 8BBBB, N^2-(biphenyl-4-ylcarbonyl)-N^1-[3-(dimethylamino)benzyl]-L-α-glutamine]: the pIC50 in assay [1] (Table 1) was 7.00. The bovine in assay [4] (setting [5]) was found to be 40%; in assay [4] (setting [6]), 0%.
Consider `O=C(O)CC[C@H](NC(=O)c1ccc(-c2ccccc2)cc1)C(=O)NCc1cccc(C(F)(F)F)c1` [Example 8GGG, N^2-(1,1′-biphenyl-4-ylcarbonyl)-N^1-[3-(trifluoromethyl)benzyl]-L-α-glutamine], for which the pIC50 in assay [1] (Table 1) is 7.00. The bovine in assay [4] (setting [5]) is 57%; in assay [4] (setting [6]), 12%.
For the molecule `O=C(O)CC[C@H](NC(=O)c1ccc(-c2ccccc2)cc1)C(=O)NCc1ccc(F)c(F)c1` [Example 8AAA, N^2-(1,1′-biphenyl-4-ylcarbonyl)-N^1-(3,4-difluorobenzyl)-L-α-glutamine], in assay [1] (Table 1), the negative-log Ki (pKi) is 7.36 and the pIC50 is 7.32. For the same molecule, the bovine in assay [4] (setting [5]) was found to be 83%. This molecule also had a bovine in assay [4] (setting [6]) of 55%.
On to `O=C(O)CC[C@H](NC(=O)c1ccc(-c2ccccc2)cc1)C(=O)NCc1ccc(OC(F)(F)F)cc1` [Example 8T, N^2-(1,1′-biphenyl-4-ylcarbonyl)-N^1-[4-(trifluoromethoxy)benzyl]-L-α-glutamine], for which, in assay [1] (Table 1), the pIC50 is 6.52. In addition, the results for the bovine in assay [4] (setting [5]) and in assay [4] (setting [6]) were 51% and 20%, respectively.
In the case of `O=C(O)CC[C@H](NC(=O)c1ccc(-c2ccccc2)cc1)C(=O)NCCCc1ccccc1` [Example 8FF, N^2-(1,1′-biphenyl-4-ylcarbonyl)-N^1-(3-phenylpropyl)-L-α-glutamine], in assay [1] (Table 1), the pKi is 7.55 and the pIC50 was 7.59. The same molecule registered a bovine in assay [4] (setting [5]) of 86%. Also, in assay [4] (setting [6]), the bovine is on record as 50%.
On to `O=C(O)CC[C@H](NC(=O)c1ccc(-c2ccccc2)cc1)C(=O)NCC1CC1` [Example 8CCC, N^2-(1,1′-biphenyl-4-ylcarbonyl)-N^1-(cyclopropylmethyl)-L-α-glutamine], for which, in assay [1] (Table 1), the pIC50 is 7.00. For the same molecule, the bovine in assay [4] (setting [5]) came to 74%; in assay [4] (setting [6]), 26%.
Consider `O=C(O)CC[C@H](NC(=O)c1ccc(-c2ccc(OCc3ccccc3-c3ccccc3)cc2)cc1)C(=O)NCc1ccccc1` [Example 15W, N-benzyl-N^2-{[4′-(biphenyl-2-ylmethoxy)biphenyl-4-yl]carbonyl}-L-α-glutamine], for which the “Agg1 % at concentration” value in assay [1] (Table 3, at 1900 (nM)) turned out to be 56%. Besides, the “Agg 2 % at concentration” value in assay [2] (Table 3, at 11000 (nM)) came to 59%.
Turning to `CC(C)(Cc1ccc(Cl)s1)NC(=O)[C@H](CCC(=O)O)NC(=O)c1ccc(-c2ccccc2)cc1` [Example 8JJJJJJJ, N^2-(biphenyl-4-ylcarbonyl)-N-[2-(5-chloro-2-thienyl)-1,1-dimethylethyl]-L-α-glutamine], the results for the pIC50 in assay [1] (Table 3) and in assay [2] (Table 3) were over 7.52 and 7.28, respectively.
On to `O=C(O)CC[C@H](NC(=O)c1ccc2c(c1)Cc1ccccc1-2)C(=O)NCc1ccccc1` [Example 8JJJJJ, N^1-benzyl-N^2-(9H-fluoren-2-ylcarbonyl)-L-α-glutamine], for which the pIC50 in assay [1] (Table 2) was 6.72; in assay [2] (Table 2), 5.96.
On the same counts, the results for `CC(C)(NC(=O)[C@H](CCC(=O)O)NC(=O)c1cccc(Oc2ccccc2)c1)c1ccccc1` [Example 8OOOOO, N^1-(1-methyl-1-phenylethyl)-N^2-(3-phenoxybenzoyl)-L-α-glutamine] are under 4.30 and under 3.70.
Regarding `C[C@@H](CNC(=O)[C@H](CCC(=O)O)NC(=O)c1ccc(-c2ccccc2)cc1)c1ccccc1` [Example 8KKKKKK, N^2-(biphenyl-4-ylcarbonyl)-N-[(2R)-2-phenylpropyl]-L-α-glutamine], the pIC50 in assay [1] (Table 2) is 6.46; in assay [2] (Table 2), 5.78.
As for `COc1cc(COc2cccc(-c3ccc(C(=O)N[C@@H](CCC(=O)O)C(=O)NCc4cc(OC)c(OC)c(OC)c4)cc3)c2)cc(OC)c1` [Example 15L, N^2-({3′-[(3,5-dimethoxybenzyl)oxy]biphenyl-4-yl}carbonyl)-N-(3,4,5-trimethoxybenzyl)-L-α-glutamine], the negative-log IC50 (pIC50) in assay [1] (Table 3) is 7.33; in assay [2] (Table 3), 6.38.
`CC(C)c1ccc(-c2ccc(C(=O)N[C@@H](CCC(=O)O)C(=O)NC(C)(C)Cc3ccccc3)cc2)cc1` [Example 17T, N-(1,1-dimethyl-2-phenylethyl)-N^2-[(4′-isopropylbiphenyl-4-yl)carbonyl]-L-α-glutamine]: the pIC50 in assay [1] (Table 2) is 5.49; in assay [2] (Table 2) it was 5.14.
With `O=C(O)CC[C@H](NC(=O)c1ccc(-c2ccccc2)cc1)C(=O)NCCc1cccc(-c2ccc(C(F)(F)F)cc2)c1` [Example 10K, N^2-(biphenyl-4-ylcarbonyl)-N^1-{2-[4′-(trifluoromethyl)biphenyl-3-yl]ethyl}-L-α-glutamine], the pIC50 was 6.42 in assay [1] (Table 1) and under 4.00 in assay [2] (Table 1).

Values taken from patent US7998965B2, “Glutamate aggrecanase inhibitors” (Wyeth LLC, priority 2005, dated 2011).
